Data from patent US20130012546A1 (priority 2009, published 2013).

Tests used:
Phytophthora infestans = type: in vivo; conditions: tomato plants, preventive spray, 100 ppm of active ingredient, evaluated 7 days after inoculation
logP(HCOOH) by HPLC = type: physicochemical; conditions: for log p: HPLC on reversed phase columns, pH 2.7, 0.1% formic acid in water / acetonitrile, linear gradient 10% to 95% acetonitrile, EEC directive 79/831 Annex V.A8
Plasmopara viticola = test: Plasmopara test (grapevines) / preventive; type: in vivo; conditions: preventive spray, 10 ppm of active ingredient, evaluated 6 days after inoculation
Method: Plasmopara Test (Grapevines)/Preventive
Solvent: 24.5 parts by weight of acetone • 24.5 parts by weight of dimethylacetamide Emulsifier: 1 part by weight of alkylaryl polyglycol ether
To produce a suitable preparation of active compound, 1 part by weight of active compound is mixed with the stated amounts of solvent and emulsifier, and the concentrate is diluted with water to the desired concentration.
To test for preventive activity, young plants are sprayed with the preparation of active compound at the stated rate of application. After the spray coating has dried on, the plants are inoculated with an aqueous spore suspension of Plasmopara viticola and then remain for 1 day in an incubation cabinet at approximately 20° C. and a relative atmospheric humidity of 100%. The plant is subsequently placed for 4 days in a greenhouse at approximately 21° C. and a relative atmospheric humidity of approximately 90%. The plants are then misted and placed for 1 day in an incubation cabinet.
The test is evaluated 6 days after the inoculation. 0% means an efficacy which corresponds to that of the untreated control, while an efficacy of 100% means that no disease is observed.

Row | SMILES | Efficacy % (Phytophthora infestans) [%] | log p (logP(HCOOH) by HPLC) | Efficacy % (Plasmopara viticola) [%] | chromatographic logP (logP(HCOOH) by HPLC; reversed phase HPLC column, pH 2.7, HCOOH, read-out: logP(HCOOH))
1 | Cn1nnnc1C(=NOCc1csc(NC(=O)OCC2CC2)n1)c1ccccc1 [Example 63] | 100 | 3.23 | 93 | 
2 | Cc1nnnn1C(=NOCc1csc(NC(=O)C(C)OC2CCCC2)n1)c1ccccc1 (stereo not shown) [Example 93] | 100 | 3.87 | 91 | 
3 | C=CCCCOCC(=O)Nc1nc(CON=C(c2ccccc2)c2nnnn2C)cs1 [Example 6] | 95 | 3.52 | 90 | 
4 | C=CCOC(C)C(=O)Nc1nc(CO/N=C(/c2ccccc2)n2nnnc2C)cs1 (stereo not shown) [Example 45] | 95 | 3.19 | 84 | 
5 | C=CCCOC(C)C(=O)Nc1nc(CO/N=C(/c2ccccc2)c2nnnn2C)cs1 (stereo not shown) [Example 46] | 98 | 3.48 | 79 | 
6 | Cc1nnnn1C(=NOCc1cccc(NC(=O)OCC2CCCCC2)n1)c1ccccc1 [Example 16] | 95 | 4.8 | 85 | 
7 | C=CCCOCC(=O)Nc1nc(CO/N=C(/c2ccccc2)c2nnnn2C)cs1 [Example 47] | 95 | 3.19 | 82 | 
8 | Cc1nnnn1C(=NOCc1cccc(NC(=O)OCCCC2CC2)n1)c1ccccc1 [Example 18] | 100 | 4.29 | 72 | 
9 | Cn1nnnc1C(=NOCc1csc(NC(=O)COC2CCCC2)n1)c1ccccc1 [Example 84] | 98 | 3.53 | 90 | 
10 | C#CCOC(C)C(=O)Nc1cccc(CO/N=C(/c2ccccc2)n2nnnc2C)n1 (stereo not shown) [Example 52] | 93 | 3.11 |  | 
11 | CC(OC1CCCCCC1)C(=O)Nc1nc(CON=C(c2ccccc2)c2nnnn2C)cs1 (stereo not shown) [Example 95] | 95 | 4.51 |  | 
12 | Cc1nnnn1C(=NOCc1cccc(NC(=O)OCC2CCCC2)n1)c1ccccc1 [Example 20] | 95 | 4.41 | 97 | 
13 | Cc1nnnn1C(=NOCc1cccc(NC(=O)COC2CCC2)n1)c1ccccc1 [Example 83] | 90 | 3.55 |  | 
14 | Cc1nnnn1C(=NOCc1cccc(NC(=O)COC2CCCC2)n1)c1ccccc1 [Example 87] | 90 | 3.92 |  | 
15 | C=CCCOCC(=O)Nc1cccc(CO/N=C(/c2ccccc2)c2nnnn2C)n1 [Example 40] | 85 | 3.39 |  | 
16 | Cc1nnnn1C(=NOCc1csc(NC(=O)COC2CCCC2)n1)c1ccccc1 [Example 86] | 95 | 3.6 | 81 | 
17 | C=CCOC(C)C(=O)Nc1nc(CO/N=C(/c2ccccc2)c2nnnn2C)cs1 (stereo not shown) [Example 48] | 100 | 3.13 | 74 | 
18 | CON=C(C(=O)Nc1nc(CON=C(c2ccccc2)c2nnnn2C)cs1)c1cccc(Cl)c1Cl [Example 11] | 95 | 4.27 |  | 
19 | Cn1nnnc1C(=NOCc1cccc(NC(=O)COC2CCC2)n1)c1ccccc1 [Example 81] | 80 | 3.46 |  | 
20 | C=CCOC(C)C(=O)Nc1cccc(CO/N=C(/c2ccccc2)c2nnnn2C)n1 (stereo not shown) [Example 42] | 98 | 3.35 | 70 | 
21 | Cn1nnnc1C(=NOCc1csc(NC(=O)OCC2CCCCC2)n1)c1ccccc1 [Example 61] | 98 | 4.37 |  | 
22 | CC(=NOCC(=O)Nc1nc(CON=C(c2ccccc2)c2nnnn2C)cs1)C(C)(C)C [Example 34] | 90 | 3.99 |  | 

Row | SMILES | Efficacy % (Phytophthora infestans) [%] | log p (logP(HCOOH) by HPLC) | Efficacy % (Plasmopara viticola) [%] | chromatographic logP (logP(HCOOH) by HPLC; reversed phase HPLC column, pH 2.7, HCOOH, read-out: logP(HCOOH))
23 | CON=C(C(=O)Nc1nc(CON=C(c2ccccc2)n2nnnc2C)cs1)c1ccc(Cl)cc1 [Example 28] | 80 | 4.32 |  | 
24 | C=CCCOC(C)C(=O)Nc1cccc(CO/N=C(/c2ccccc2)c2nnnn2C)n1 (stereo not shown) [Example 41] | 100 | 3.69 |  | 
25 | Cn1nnnc1C(=NOCc1cccc(NC(=O)COC2CCCCC2)n1)c1ccccc1 [Example 77] | 93 | 4.15 |  | 
26 | Cn1nnnc1C(=NOCc1cccc(NC(=O)COC2CCCCCC2)n1)c1ccccc1 [Example 90] | 100 | 4.56 |  | 
27 | Cc1nnnn1C(=NOCc1csc(NC(=O)COC2CCCCCC2)n1)c1ccccc1 [Example 89] | 100 | 4.3 | 73 | 
28 | C#CCOCC(=O)Nc1nc(CON=C(c2ccccc2)c2nnnn2C)cs1 [Example 13] | 85 | 2.64 |  | 
29 | Cn1nnnc1C(=NOCc1csc(NC(=O)OCCC2CCCCC2)n1)c1ccccc1 [Example 62] | 100 | 4.66 | 88 | 
30 | CON=C(C(=O)Nc1nc(CON=C(c2ccccc2)c2nnnn2C)cs1)c1ccc(Br)cc1 [Example 8] | 93 | 4.37 |  | 
31 | CON=C(C(=O)Nc1nc(CON=C(c2ccccc2)c2nnnn2C)cs1)c1ccc(Cl)cc1 [Example 7] | 95 | 4.27 |  | 
32 | Cc1nnnn1/C(=N\OCc1csc(NC(=O)OC(C)CC2CC2)n1)c1ccccc1 (stereo not shown) [Example 56] | 95 | 3.87 |  | 
33 | CON=C(C(=O)Nc1nc(CON=C(c2ccccc2)n2nnnc2C)cs1)c1ccccc1Cl [Example 27] | 85 | 3.92 |  | 
34 | CON=C(C(=O)Nc1nc(CON=C(c2ccccc2)c2nnnn2C)cs1)c1ccc(Cl)cc1Cl [Example 9] | 95 | 4.41 |  | 
35 | CC(OC1CCCCC1)C(=O)Nc1cccc(CON=C(c2ccccc2)c2nnnn2C)n1 (stereo not shown) [Example 99] | 90 | 4.49 |  | 
36 | Cc1nnnn1C(=NOCc1csc(NC(=O)OCC2CCCCC2)n1)c1ccccc1 [Example 25] | 93 | 4.41 |  | 
37 | CON=C(C(=O)Nc1cccc(CON=C(c2ccccc2)c2nnnn2C)n1)c1ccccc1Cl [Example 2] | 98 | 4.13 |  | 
38 | Cn1nnnc1C(=NOCc1cccc(NC(=O)COC2CCCC2)n1)c1ccccc1 [Example 85] | 95 | 3.83 |  | 
39 | CC1CCC(C(C)C)C(OCC(=O)Nc2nc(CON=C(c3cccc(F)c3)c3nnnn3C)cs2)C1 (stereo not shown) [Example 109] | 84 | 5.47 |  | 
40 | CC(=NOCC(=O)Nc1cccc(CON=C(c2ccccc2)c2nnnn2C)n1)c1ccccc1 [Example 33] | 80 | 3.92 |  | 
41 | CC(OC1CCCC1)C(=O)Nc1nc(CO/N=C(/c2ccccc2)c2nnnn2C)cs1 (stereo not shown) [Example 97, 2-(cyclopentyloxy)-N-{4-[({[(Z)-(1-methyl-1H-tetrazol-5-yl)(phenyl)methylene]amino}oxy)methyl]-1,3-thiazol-2-yl}propanamide] | 95 |  |  | 3.8
42 | CON=C(C(=O)Nc1cccc(CON=C(c2ccccc2)c2nnnn2C)n1)c1ccc(Cl)cc1Cl [Example 1] | 95 | 4.7 |  | 
43 | CC(=NOCC(=O)Nc1nc(CON=C(c2ccccc2)n2nnnc2C)cs1)C(C)(C)C [Example 37] | 88 | 4.04 |  | 
44 | CC(C)=NOC(C)C(=O)Nc1nc(CO/N=C(/c2ccccc2)c2nnnn2C)cs1 (stereo not shown) [Example 35] | 95 | 3.11 |  | 
